According to patent US5395947A, “Platinum(II) complex and processes for preparing the same” (Sunkyong Industries, Ltd., priority 1991, dated 1995):

Legend:
[1] = test system: murine leukemia L1210 cells; experiment: Growth inhibition test on cultured murine leukemia L1210 cells; type: cell-based; conditions: 48 hours, 37° C., Trypan blue viability
How it was run: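 Read-out is Trypan blue (0.17%) viability versus compound-free controls. Cells, 1×10^5, were cultured 48 h at 37° C under 5% CO2 in RPMI 1640/10% FCS containing various compound concentrations.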

[2] = test system: murine leukemia L1210; experiment: Antitumor activity test on murine leukemia L1210 in vivo; parameters: species or system male BDF1 mice; conditions: days 1, 5, 9
How it was run: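 Male BDF1 mice (6 weeks, 21±3 g; n=7) received 1×10^6 leukemia cells into the peritoneum on day 0, then test compound suspended or dissolved in 0.5% CMC i.p. on days 1, 5, 9. Activity expressed as T/C %, mean survival treated versus 0.5% CMC-injected controls.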

[3] = Test for water solubility; type: physicochemical; conditions: water
Text: 3. Test for water solubility
A standard plot of UV absorbance(220 nm) vs. concentration was made; and employed to determine water-solubility.
The mixture was then passed through a 0.45 micron disposable membrane filter before dilution and UV measurement.

[4] = test system: ICR mice; experiment: Acute toxicity test; type: in vivo; parameters: Lethality: unit not given here; conditions: for Lethality: 10080 min
How it was run: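 Single i.p. administration to ICR mice (7 weeks old, both sexes, n=6/group); appearance and mortality logged over 7 days, dead animals autopsied for gross pathology.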

Q: Which results are given for `O=C1[O][Pt-2]2([NH2+]CC3OCOC3C[NH2+]2)[O]C(=O)C12CCC2` [Example 20, cis-cyclobutane-1,1-dicarboxylato [(4R,5R)-4,5-bis(aminomethyl)-1,3-dioxolane]platinum (II)]?
A: IC50 (concentration required for 50% inhibition of growth) [1]: 1.28 µg/mL; T/C (%) ([2]; 6.2 mg/kg i.p.): 122%; T/C (%) ([2]; 12.5 mg/kg i.p.): 187%; T/C (%) ([2]; 25 mg/kg i.p.): 137%; T/C (%) ([2]; 50 mg/kg i.p.): 193%; T/C (%) ([2]; 100 mg/kg i.p.): 271%; Solubility in water [3]: 3100 µg/mL; Number of dead mice for 7 days ([4]; female, 94 mg/kg i.p.): 0/6; Number of dead mice, 1st day ([4]; female, 94 mg/kg i.p.): 0/6; Number of dead mice for 7 days ([4]; female, 123 mg/kg i.p.): 2/6; Number of dead mice, 1st day ([4]; female, 123 mg/kg i.p.): 0/6; Number of dead mice, 4th day ([4]; female, 123 mg/kg i.p.): 2/6; Lethality ([4]; female, 123 mg/kg i.p.): 33.3; Number of dead mice for 7 days ([4]; female, 160 mg/kg i.p.): 4/6; Number of dead mice, 1st day ([4]; female, 160 mg/kg i.p.): 0/6; Number of dead mice, 4th day ([4]; female, 160 mg/kg i.p.): 2/6; Number of dead mice, 5th day ([4]; female, 160 mg/kg i.p.): 2/4; Lethality ([4]; female, 160 mg/kg i.p.): 66.7; Number of dead mice for 7 days ([4]; female, 208 mg/kg i.p.): 6/6; Number of dead mice, 1st day ([4]; female, 208 mg/kg i.p.): 0/6; Number of dead mice, 3rd day ([4]; female, 208 mg/kg i.p.): 1/6; Number of dead mice, 4th day ([4]; female, 208 mg/kg i.p.): 5/5; Lethality ([4]; female, 208 mg/kg i.p.): 100.0; Number of dead mice for 7 days ([4]; female, 270 mg/kg i.p.): 6/6; Number of dead mice, 1st day ([4]; female, 270 mg/kg i.p.): 0/6; Number of dead mice, 2nd day ([4]; female, 270 mg/kg i.p.): 4/6; Number of dead mice, 3rd day ([4]; female, 270 mg/kg i.p.): 2/2; Lethality ([4]; female, 270 mg/kg i.p.): 100.0; Number of dead mice for 7 days ([4]; male, 94 mg/kg i.p.): 0/6; Number of dead mice, 1st day ([4]; male, 94 mg/kg i.p.): 0/6; Number of dead mice for 7 days ([4]; male, 123 mg/kg i.p.): 2/6; Number of dead mice, 1st day ([4]; male, 123 mg/kg i.p.): 1/6; Number of dead mice, 5th day ([4]; male, 123 mg/kg i.p.): 1/5; Lethality ([4]; male, 123 mg/kg i.p.): 33.3; Number of dead mice for 7 days ([4]; male, 160 mg/kg i.p.): 5/6; Number of dead mice, 1st day ([4]; male, 160 mg/kg i.p.): 0/6; Number of dead mice, 4th day ([4]; male, 160 mg/kg i.p.): 2/6; Number of dead mice, 5th day ([4]; male, 160 mg/kg i.p.): 1/4; Number of dead mice, 6th day ([4]; male, 160 mg/kg i.p.): 2/3; Lethality ([4]; male, 160 mg/kg i.p.): 83.3; Number of dead mice for 7 days ([4]; male, 208 mg/kg i.p.): 6/6; Number of dead mice, 1st day ([4]; male, 208 mg/kg i.p.): 0/6; Number of dead mice, 4th day ([4]; male, 208 mg/kg i.p.): 6/6; Lethality ([4]; male, 208 mg/kg i.p.): 100.0; Number of dead mice for 7 days ([4]; male, 270 mg/kg i.p.): 6/6; Number of dead mice, 1st day ([4]; male, 270 mg/kg i.p.): 0/6; Number of dead mice, 2nd day ([4]; male, 270 mg/kg i.p.): 4/6; Number of dead mice, 3rd day ([4]; male, 270 mg/kg i.p.): 2/2; Lethality ([4]; male, 270 mg/kg i.p.): 100.0
